Data as given in ChEMBL document CHEMBL1201862, “PubChem BioAssay data set” (2004).
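Cells were grown in 96-well plates and exposed to each compound for 48 hours at five concentrations; endpoints were interpolated linearly between bracketing concentrations, or set to the highest concentration if not reached. GI50 is the concentration that inhibits growth by half.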 Activity calls are given as the source filed them. Rule as the data show it: active = GI50 up to about 1.1 µM and inactive = higher.

Experiments:
Test in all cases: NCI-60 cell line screen, 48 h
UACC-257 = tested on: UACC-257
SR = tested on: SR
ACHN = tested on: ACHN
T47D = tested on: T47D
SF-539 = tested on: SF-539
SNB-19 = tested on: SNB-19
SW-620 = tested on: SW-620
IGROV-1 = tested on: IGROV-1
RXF 393 = tested on: RXF 393
HOP-92 = tested on: HOP-92
U-251 = tested on: U-251
Hs-578T = tested on: Hs-578T
MDA-MB-435 = tested on: MDA-MB-435
A498 = tested on: A498
SK-MEL-28 = tested on: SK-MEL-28
OVCAR-4 = tested on: OVCAR-4
HOP-62 = tested on: HOP-62
RPMI-8226 = tested on: RPMI-8226
OVCAR-3 = tested on: OVCAR-3
NCI-H522 = tested on: NCI-H522
HCT-15 = tested on: HCT-15
EKVX = tested on: EKVX
UACC-62 = tested on: UACC-62
SK-OV-3 = tested on: SK-OV-3
HT-29 = tested on: HT-29
SF-268 = tested on: SF-268
OVCAR-8 = tested on: OVCAR-8
MDA-MB-231 = tested on: MDA-MB-231
PC-3 = tested on: PC-3
MDA-N = tested on: MDA-N
NCI-H226 = tested on: NCI-H226
MOLT-4 = tested on: MOLT-4
NCI-H460 = tested on: NCI-H460
SK-MEL-2 = tested on: SK-MEL-2
COLO 205 = tested on: COLO 205
HL-60 = tested on: HL-60
OVCAR-5 = tested on: OVCAR-5
BT-549 = tested on: BT-549
NCI-H23 = tested on: NCI-H23
SN12C = tested on: SN12C
SF-295 = tested on: SF-295
KM12 = tested on: KM12
SNB-75 = tested on: SNB-75
CCRF-CEM = tested on: CCRF-CEM
MCF7 = tested on: MCF7
M14 = tested on: M14
NCI/ADR-RES = tested on: NCI/ADR-RES
SK-MEL-5 = tested on: SK-MEL-5
A549 = tested on: A549
CAKI-1 = tested on: CAKI-1
HCC 2998 = tested on: HCC 2998
HCT-116 = tested on: HCT-116
TK-10 = tested on: TK-10
786-0 = tested on: 786-0
K562 = tested on: K562
UO-31 = tested on: UO-31
Malme-3M = tested on: Malme-3M
DU-145 = tested on: DU-145
LOX IMVI = tested on: LOX IMVI

CSC(=N/N=C(\C)c1ccc(S(=O)(=O)N(C)c2ccccc2)cc1)SC
GI50 (UACC-257): > 100 µM (inactive) | GI50 (SR): > 59.6 µM (inactive) | GI50 (ACHN): > 70 µM (inactive) | GI50 (T47D): > 60.7 µM (inactive) | GI50 (SF-539): > 52.4 µM (inactive) | GI50 (SNB-19): > 66.2 µM (inactive) | GI50 (SW-620): > 66.4 µM (inactive) | GI50 (IGROV-1): > 61.4 µM (inactive) | GI50 (RXF 393): 27.7 µM (inactive) | GI50 (HOP-92): > 43.8 µM (inactive) | GI50 (U-251): > 51.9 µM (inactive) | GI50 (Hs-578T): > 59.4 µM (inactive) | GI50 (MDA-MB-435): > 62.8 µM (inactive) | GI50 (A498): > 63.8 µM (inactive) | GI50 (SK-MEL-28): > 67.9 µM (inactive) | GI50 (OVCAR-4): > 58.6 µM (inactive) | GI50 (HOP-62): > 62.5 µM (inactive) | GI50 (RPMI-8226): 13.1 µM (inactive) | GI50 (OVCAR-3): > 63.4 µM (inactive) | GI50 (NCI-H522): > 100 µM (inactive) | GI50 (HCT-15): > 66.7 µM | GI50 (EKVX): > 65 µM (inactive) | GI50 (UACC-62): > 65.8 µM (inactive) | GI50 (SK-OV-3): > 66.5 µM (inactive) | GI50 (HT-29): > 84.9 µM (inactive) | GI50 (SF-268): > 66.5 µM (inactive) | GI50 (OVCAR-8): > 100 µM (inactive) | GI50 (MDA-MB-231): > 61.8 µM (inactive) | GI50 (PC-3): > 62.7 µM (inactive) | GI50 (MDA-N): > 66.2 µM (inactive) | GI50 (NCI-H226): > 100 µM (inactive) | GI50 (MOLT-4): 17.2 µM (inactive) | GI50 (NCI-H460): > 100 µM (inactive) | GI50 (SK-MEL-2): > 62.2 µM (inactive) | GI50 (COLO 205): > 67.1 µM (inactive) | GI50 (HL-60): > 43.5 µM (inactive) | GI50 (OVCAR-5): > 66.5 µM (inactive) | GI50 (BT-549): > 50.8 µM (inactive) | GI50 (NCI-H23): > 63.1 µM (inactive) | GI50 (SN12C): > 66.2 µM (inactive) | GI50 (SF-295): > 64.7 µM (inactive) | GI50 (KM12): > 64.4 µM (inactive) | GI50 (SNB-75): > 63.1 µM (inactive) | GI50 (CCRF-CEM): 15.6 µM (inactive) | GI50 (MCF7): 31.1 µM (inactive) | GI50 (M14): > 63.1 µM (inactive) | GI50 (NCI/ADR-RES): > 100 µM (inactive) | GI50 (SK-MEL-5): > 100 µM (inactive) | GI50 (A549): > 100 µM (inactive) | GI50 (CAKI-1): > 64.9 µM (inactive) | GI50 (HCC 2998): > 100 µM (inactive) | GI50 (HCT-116): > 64.7 µM (inactive) | GI50 (TK-10): > 100 µM (inactive) | GI50 (786-0): > 64.9 µM (inactive) | GI50 (K562): > 53.1 µM (inactive) | GI50 (UO-31): > 61.5 µM (inactive) | GI50 (Malme-3M): > 100 µM (inactive) | GI50 (DU-145): > 66.4 µM (inactive) | GI50 (LOX IMVI): > 69.7 µM (inactive)

Cc1cc(CN(Cc2ccccc2)Cc2nc3ccccc3[nH]2)c(O)c(CN(Cc2nc3ccccc3[nH]2)Cc2nc3ccccc3[nH]2)c1
GI50 (UACC-257): 4.86 µM (inactive) | GI50 (SR): 2.6 µM (inactive) | GI50 (ACHN): 3.38 µM (inactive) | GI50 (T47D): 8.05 µM (inactive) | GI50 (SF-539): 2.92 µM (inactive) | GI50 (SNB-19): 5.2 µM (inactive) | GI50 (SW-620): 14.1 µM (inactive) | GI50 (IGROV-1): 5.04 µM (inactive) | GI50 (RXF 393): 13.5 µM (inactive) | GI50 (HOP-92): 3.48 µM (inactive) | GI50 (U-251): 13 µM (inactive) | GI50 (Hs-578T): 15.6 µM (inactive) | GI50 (MDA-MB-435): 7.52 µM (inactive) | GI50 (A498): 10.2 µM (inactive) | GI50 (SK-MEL-28): 26.2 µM (inactive) | GI50 (OVCAR-4): 6.01 µM (inactive) | GI50 (HOP-62): 5.26 µM (inactive) | GI50 (RPMI-8226): 4.81 µM (inactive) | GI50 (OVCAR-3): 6.5 µM (inactive) | GI50 (NCI-H522): 16.2 µM (inactive) | GI50 (HCT-15): 2.81 µM | GI50 (EKVX): 11.4 µM (inactive) | GI50 (UACC-62): 3.56 µM (inactive) | GI50 (SK-OV-3): 5.55 µM (inactive) | GI50 (HT-29): 4.11 µM (inactive) | GI50 (SF-268): 8.11 µM (inactive) | GI50 (OVCAR-8): 4.18 µM (inactive) | GI50 (MDA-MB-231): 12.4 µM (inactive) | GI50 (PC-3): 12.4 µM (inactive) | GI50 (MDA-N): 6.43 µM (inactive) | GI50 (NCI-H226): 3.42 µM (inactive) | GI50 (MOLT-4): 4.26 µM (inactive) | GI50 (NCI-H460): 3.94 µM (inactive) | GI50 (SK-MEL-2): 10.8 µM (inactive) | GI50 (COLO 205): 19.8 µM (inactive) | GI50 (HL-60): 2.16 µM (inactive) | GI50 (OVCAR-5): 15.2 µM (inactive) | GI50 (BT-549): 4.76 µM (inactive) | GI50 (NCI-H23): 6.93 µM (inactive) | GI50 (SN12C): 8.41 µM (inactive) | GI50 (SF-295): 6.15 µM (inactive) | GI50 (KM12): 6.3 µM (inactive) | GI50 (SNB-75): 8.91 µM (inactive) | GI50 (CCRF-CEM): 2.81 µM (inactive) | GI50 (MCF7): 2.66 µM (inactive) | GI50 (M14): 5.94 µM (inactive) | GI50 (NCI/ADR-RES): 5.06 µM (inactive) | GI50 (SK-MEL-5): 6.73 µM (inactive) | GI50 (A549): 8.79 µM (inactive) | GI50 (CAKI-1): 8.69 µM (inactive) | GI50 (HCC 2998): 6.43 µM (inactive) | GI50 (HCT-116): 4.16 µM (inactive) | GI50 (TK-10): 4.71 µM (inactive) | GI50 (786-0): 15 µM (inactive) | GI50 (K562): 2.63 µM (inactive) | GI50 (UO-31): 7.03 µM (inactive) | GI50 (Malme-3M): 24.9 µM (inactive) | GI50 (DU-145): 23.4 µM (inactive) | GI50 (LOX IMVI): 3.48 µM (inactive)

COc1cccc(CCN2CCN(CCCc3ccccc3)CC2)c1
GI50 (UACC-257): > 100 µM (inactive) | GI50 (SR): 30.5 µM (inactive) | GI50 (ACHN): > 100 µM (inactive) | GI50 (T47D): 43.6 µM (inactive) | GI50 (SF-539): > 100 µM (inactive) | GI50 (SNB-19): > 100 µM (inactive) | GI50 (SW-620): > 100 µM (inactive) | GI50 (IGROV-1): > 100 µM (inactive) | GI50 (RXF 393): 71 µM (inactive) | GI50 (HOP-92): 8.41 µM (inactive) | GI50 (U-251): > 100 µM (inactive) | GI50 (Hs-578T): > 100 µM (inactive) | GI50 (MDA-MB-435): 85.9 µM (inactive) | GI50 (A498): 61 µM (inactive) | GI50 (SK-MEL-28): > 100 µM (inactive) | GI50 (OVCAR-4): 51.1 µM (inactive) | GI50 (HOP-62): 79.1 µM (inactive) | GI50 (RPMI-8226): 32.6 µM (inactive) | GI50 (OVCAR-3): 64.6 µM (inactive) | GI50 (NCI-H522): 22.6 µM (inactive) | GI50 (HCT-15): 31.7 µM | GI50 (EKVX): > 100 µM (inactive) | GI50 (UACC-62): > 100 µM (inactive) | GI50 (SK-OV-3): 88.1 µM (inactive) | GI50 (HT-29): 31.8 µM (inactive) | GI50 (SF-268): > 100 µM (inactive) | GI50 (OVCAR-8): > 100 µM (inactive) | GI50 (MDA-MB-231): > 100 µM (inactive) | GI50 (PC-3): > 100 µM (inactive) | GI50 (MDA-N): > 100 µM (inactive) | GI50 (NCI-H226): 71 µM (inactive) | GI50 (MOLT-4): 92.3 µM (inactive) | GI50 (NCI-H460): 78 µM (inactive) | GI50 (SK-MEL-2): > 100 µM (inactive) | GI50 (COLO 205): 21.1 µM (inactive) | GI50 (HL-60): 61.4 µM (inactive) | GI50 (OVCAR-5): > 100 µM (inactive) | GI50 (BT-549): 40.1 µM (inactive) | GI50 (NCI-H23): 53 µM (inactive) | GI50 (SN12C): > 100 µM (inactive) | GI50 (SF-295): 43 µM (inactive) | GI50 (KM12): 51.8 µM (inactive) | GI50 (SNB-75): 63.1 µM (inactive) | GI50 (CCRF-CEM): > 100 µM (inactive) | GI50 (MCF7): 44.1 µM (inactive) | GI50 (M14): 21.2 µM (inactive) | GI50 (NCI/ADR-RES): > 100 µM (inactive) | GI50 (SK-MEL-5): 19.4 µM (inactive) | GI50 (A549): 94.6 µM (inactive) | GI50 (CAKI-1): 67.3 µM (inactive) | GI50 (HCC 2998): 58.3 µM (inactive) | GI50 (HCT-116): 53.7 µM (inactive) | GI50 (TK-10): > 100 µM (inactive) | GI50 (786-0): 63.8 µM (inactive) | GI50 (K562): 32.1 µM (inactive) | GI50 (UO-31): 51.1 µM (inactive) | GI50 (Malme-3M): 55.5 µM (inactive) | GI50 (DU-145): > 100 µM (inactive) | GI50 (LOX IMVI): 55.1 µM (inactive)
